Twelve compounds from PubChem BioAssay AID180 (DTP/NCI, 2004) can be followed below.

Values joined by “and” are separate entries in the source; they are usually repeats but may differ in a detail not shown here. Equal entries are not always repeated.

By T/C is commonly meant the result in the treated group divided by that in the control group, in per cent.

In this experiment the test system is BDF1 mice, Adenocarcinoma 755 s.c., tumor weight T/C. The experiment is described as follows: NCI In Vivo Anticancer Drug Screen. Data for tumor model Adenocarcinoma 755 (subcutaneous) in B6D2F1 (BDF1) mice. To be noted: endpoint: mean tumor weight, higher = larger tumour. The essentials:
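Compound activity was tested in mice carrying transplanted tumors. Survival or tumor size was measured, and each value is the treated-group measurement divided by that of the vehicle-treated control group (T/C).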

Where [1] appears, read: dose: 25.0 mg/kg/injection, schedule: Q01DX011 (ip), vehicle: carboxymethylcellulose (CMC).
[2] abbreviates: dose: 75.0 mg/kg/injection, schedule: Q01DX011 (ip), vehicle: methylcellulose (MC).

Regarding `CC(C)n1cnc2c(=S)nc[nH]c21`, the T/C runs as follows: (dose: 0.2 mg/kg/injection, schedule: Q01DX011 (ip), vehicle: carboxymethylcellulose (CMC)) 114 % of control; (dose: 0.39 mg/kg/injection, schedule: Q01DX011 (ip), vehicle: carboxymethylcellulose (CMC)) 67 % of control; (dose: 0.45 mg/kg/injection, schedule: Q01DX011 (ip), vehicle: carboxymethylcellulose (CMC)) 63 % of control; (dose: 0.78 mg/kg/injection, schedule: Q01DX011 (ip), vehicle: carboxymethylcellulose (CMC)) 111 % of control; (dose: 0.9 mg/kg/injection, schedule: Q01DX011 (ip), vehicle: carboxymethylcellulose (CMC)) 62 % of control; (dose: 0.9 mg/kg/injection, schedule: Q01DX011 (oral), vehicle: carboxymethylcellulose (CMC)) 52 % of control. Also, the T/C reads like this: (dose: 1.56 mg/kg/injection, schedule: Q01DX011 (ip), vehicle: carboxymethylcellulose (CMC)) 50 % of control; (dose: 1.8 mg/kg/injection, schedule: Q01DX011 (ip), vehicle: carboxymethylcellulose (CMC)) 15 % of control; (dose: 1.8 mg/kg/injection, schedule: Q01DX011 (oral), vehicle: carboxymethylcellulose (CMC)) 11 % of control; (dose: 3.12 mg/kg/injection, schedule: Q01DX011 (ip), vehicle: carboxymethylcellulose (CMC)) 9 % of control; (dose: 3.6 mg/kg/injection, schedule: Q01DX011 (ip), vehicle: carboxymethylcellulose (CMC)) 1 % of control; (dose: 3.6 mg/kg/injection, schedule: Q01DX011 (oral), vehicle: carboxymethylcellulose (CMC)) 5 % of control. For the same compound, the T/C is 7 % of control and 14 % of control (dose: 3.62 mg/kg/injection, schedule: Q01DX011 (ip), vehicle: carboxymethylcellulose (CMC)); 6 % of control (dose: 6.25 mg/kg/injection, schedule: Q01DX011 (ip), vehicle: carboxymethylcellulose (CMC)); 3 % of control and 6 % of control (dose: 7.25 mg/kg/injection, schedule: Q01DX011 (ip), vehicle: carboxymethylcellulose (CMC)); 11 % of control (dose: 7.25 mg/kg/injection, schedule: Q01DX011 (oral), vehicle: carboxymethylcellulose (CMC)); 3 % of control (dose: 12.5 mg/kg/injection, schedule: Q01DX011 (ip), vehicle: carboxymethylcellulose (CMC)); 1 % of control (dose: 14.5 mg/kg/injection, schedule: Q01DX011 (ip), vehicle: carboxymethylcellulose (CMC)). In addition, the T/C was 8 % of control under setting [1]; 2 % of control (dose: 29.0 mg/kg/injection, schedule: Q01DX011 (oral), vehicle: carboxymethylcellulose (CMC)); 3 % of control and 6 % of control (dose: 50.0 mg/kg/injection, schedule: Q01DX011 (ip), vehicle: carboxymethylcellulose (CMC)).

Regarding `Nc1nc(Cl)cc(-c2ccccc2)n1`, the T/C (dose: 15.0 mg/kg/injection, schedule: Q01DX011 (ip), vehicle: methylcellulose (MC)) was 86 % of control; the T/C (dose: 31.0 mg/kg/injection, schedule: Q01DX011 (ip), vehicle: methylcellulose (MC)) was 122 % of control; the T/C (dose: 62.0 mg/kg/injection, schedule: Q01DX011 (ip), vehicle: methylcellulose (MC)) is 94 % of control; the T/C (dose: 125.0 mg/kg/injection, schedule: Q01DX011 (ip), vehicle: methylcellulose (MC)) was 65 % of control; the T/C (dose: 250.0 mg/kg/injection, schedule: Q01DX011 (ip), vehicle: methylcellulose (MC)) was 107 % of control.

`S=c1nc[nH]c2c1ncn2C1CCCS1` (centres undefined): the T/C reads like this: under setting [2], 114 % of control; (dose: 225.0 mg/kg/injection, schedule: Q01DX011 (ip), vehicle: methylcellulose (MC)) 43 % of control.

`CC(=O)[C@@]1(O)[C@H](C)C[C@H]2[C@@H]3C=C(C)C4=Cc5c(cnn5-c5ccccc5)C[C@]4(C)[C@H]3[C@@H](O)C[C@@]21C`: the T/C reads like this: (dose: 0.01 mg/kg/injection, schedule: Q01DX011 (sc), vehicle: steriod suspending solution) 70 % of control; (dose: 0.03 mg/kg/injection, schedule: Q01DX011 (sc), vehicle: steriod suspending solution) 43 % of control; (dose: 0.05 mg/kg/injection, schedule: Q01DX011 (sc), vehicle: steriod suspending solution) 41 % of control; (dose: 0.2 mg/kg/injection, schedule: Q01DX011 (sc), vehicle: steriod suspending solution) 27 % of control and 44 % of control; (dose: 0.3 mg/kg/injection, schedule: Q01DX011 (sc), vehicle: steriod suspending solution) 14 % of control and 28 % of control; (dose: 0.5 mg/kg/injection, schedule: Q01DX011 (sc), vehicle: steriod suspending solution) 33 % of control. The T/C by setting is: (dose: 30.0 micrograms/kg/injection, schedule: Q01DX011 (ip), vehicle: saline) 115 % of control; (dose: 60.0 micrograms/kg/injection, schedule: Q01DX011 (ip), vehicle: saline) 115 % of control; (dose: 120.0 micrograms/kg/injection, schedule: Q01DX011 (ip), vehicle: saline) 105 % of control.

`CCCn1cnc2c(SCc3ccccn3)nc(N)nc21`: the T/C is, setting by setting: (dose: 3.6 mg/kg/injection, schedule: Q01DX011 (ip), vehicle: methylcellulose (MC)) 12 % of control; (dose: 7.25 mg/kg/injection, schedule: Q01DX011 (ip), vehicle: methylcellulose (MC)) 4 % of control; (dose: 15.5 mg/kg/injection, schedule: Q01DX011 (ip), vehicle: methylcellulose (MC)) 1 % of control.

In the case of `OCCNc1ncnc2c1ncn2C1OC(CO)C(O)C1O` (centres undefined), the T/C by setting is: (dose: 25.0 mg/kg/injection, schedule: Q01DX011 (ip), vehicle: methylcellulose (MC)) 55 % of control; (dose: 50.0 mg/kg/injection, schedule: Q01DX011 (ip), vehicle: methylcellulose (MC)) 49 % of control; under setting [2], 17 % of control; (dose: 100.0 mg/kg/injection, schedule: Q01DX011 (ip), vehicle: methylcellulose (MC)) 27 % of control; (dose: 200.0 mg/kg/injection, schedule: Q01DX011 (ip), vehicle: methylcellulose (MC)) 7 % of control.

With `C[N+](C)(C)c1nc(N)nc2c1ncn2C1OC(CO)C(O)C1O` (centres undefined), the T/C by setting is: (dose: 30.0 mg/kg/injection, schedule: Q01DX011 (ip), vehicle: saline) 114 % of control; (dose: 60.0 mg/kg/injection, schedule: Q01DX011 (ip), vehicle: saline) 101 % of control; (dose: 120.0 mg/kg/injection, schedule: Q01DX011 (ip), vehicle: saline) 52 % of control; (dose: 240.0 mg/kg/injection, schedule: Q01DX011 (ip), vehicle: saline) 24 % of control; (dose: 400.0 mg/kg/injection, schedule: Q01DX011 (ip), vehicle: saline) 3 % of control.

Regarding `CN(C)C1C(=O)C(C(=O)NCNC(CCS(C)=O)C(=O)O)=C(O)C2(O)C(=O)C3=C(O)c4c(O)cccc4C(C)(O)C3CC12` (centres undefined), the T/C (dose: 200.0 mg/kg/injection, schedule: Q01DX011 (ip), vehicle: saline) is 68 % of control.

Take `C[C@]12CCC(=O)C=C1CC[C@H]1[C@@H]3CC[C@](O)(C(=O)CF)[C@@]3(C)C[C@H](O)[C@@]12F`: the T/C was 86 % of control (dose: 0.87 mg/kg/injection, schedule: Q01DX011 (sc), vehicle: steriod suspending solution); 68 % of control (dose: 1.75 mg/kg/injection, schedule: Q01DX011 (sc), vehicle: steriod suspending solution); 66 % of control and 69 % of control (dose: 3.5 mg/kg/injection, schedule: Q01DX011 (sc), vehicle: steriod suspending solution); 29 % of control and 34 % of control and 40 % of control (dose: 7.0 mg/kg/injection, schedule: Q01DX011 (sc), vehicle: steriod suspending solution); 9 % of control and 28 % of control (dose: 28.0 mg/kg/injection, schedule: Q01DX011 (sc), vehicle: steriod suspending solution); 10 % of control and 31 % of control (dose: 56.0 mg/kg/injection, schedule: Q01DX011 (sc), vehicle: steriod suspending solution).

Turning to `COc1cc(C(=O)[O][Hg][CH2]C2COC([CH2][Hg][O]C(=O)c3cc(OC)c(OC)c(OC)c3)CO2)cc(OC)c1OC` (centres undefined), under setting [1], the T/C is 61 % of control.

As for `CC(CN1CCN(C)CC1)CN1c2ccccc2Sc2ccc(C(F)(F)F)cc21` (centres undefined), the T/C runs as follows: (dose: 17.5 mg/kg/injection, schedule: Q01DX011 (ip), vehicle: methylcellulose (MC)) 64 % of control; (dose: 35.0 mg/kg/injection, schedule: Q01DX011 (ip), vehicle: methylcellulose (MC)) 52 % of control; (dose: 70.0 mg/kg/injection, schedule: Q01DX011 (ip), vehicle: methylcellulose (MC)) 58 % of control.

`CCCCN(C)N=Nc1ccc(CCC(=O)OCC)cc1`: the T/C by setting is: (dose: 62.5 mg/kg/injection, schedule: Q01DX011 (ip), vehicle: saline) 95 % of control; (dose: 125.0 mg/kg/injection, schedule: Q01DX011 (ip), vehicle: saline) 38 % of control; (dose: 250.0 mg/kg/injection, schedule: Q01DX011 (ip), vehicle: saline) 80 % of control.
